# Laboratory results: US20070077583A1, “Alpha enolase-directed diagnostics and therapeutics for cancer and chemotherapeutic drug resistance” (Aurelium BioPharma, Inc., priority 2005, published 2007)
# “Also recorded” adds a separate entry of the source. Where two headings read alike, the source gives them in different places.
# Columns and labels:
# MCF-7 cells [1] = experiment: MTT cytotoxicity assay, MCF-7 cells transfected with α-enolase siRNA; format: cell-based, human; details: MCF-7 cells
# Description: For a typical siRNA transfection, 1 nmole of the annealed siRNA duplex was mixed with 1.4 ml of Opti-MEM reagent (Invitrogen). In another tube, […] of Oligofectamine reagent (Invitrogen, Carlsbad, Calif.) is mixed with […] of Opti-MEM. The two solutions are combined and mixed gently by inversion and incubated for 20 min. at RT. The resulting solution is added to the cultured cells drop by drop in a 10 cm dish (cells are approximately 40-50% confluent). The next day the transfected cells were trypsinized and seeded in 6 or 96-well plates and further incubated for the indicated amount of time (assay dependent) before further analysis.
# To evaluate the effect of α-enolase depletion on the chemosensitivity of cells to cytotoxic agents, MTT assays were performed in breast adenocarcinoma MCF-7 cells transfected with α-enolase specific siRNAs. […] The predicted EC50 values (the effective dose of a compound responsible for a positive effect half-way between baseline and maximum net impact) for the α-enolase-depleted cells are shown in Table 3. Similarly, results using other chemotherapeutic drugs are also shown in the table indicating the sensitivity of breast cancer tissue to α-enolase depletion.
# CaOV3 cells = experiment: MTT cytotoxicity assay, CaOV3 cells transfected with α-enolase RNAi; format: cell-based, human; details: for EC50: Homo sapiens, 72 hours post transfection
# Source text: These observations were expanded by targeting α-enolase in the ovarian cancer cell line, CaOV3.
# H460 cells = experiment: MTT cytotoxicity assay, H460 cells transfected with α-enolase siRNA; format: cell-based, human; details: for EC50: Homo sapiens
# Description: To establish the effectiveness of α-enolase silencing on other cancer cell types, H460 non-small cell lung cancer cells were challenged with a chemotherapeutic drug, MTT cytotoxicity assays were carried out and survival curves plotted as shown in FIG. 17.
# SW-480 cells = experiment: cells; format: cell-based, human; details: Homo sapiens, SW480, SW-480 cells
# Description: The colorectal adenocarcinoma cell line SW-480 was treated with α-enolase-directed siRNA using the procedures described above.
# MDA-435 cells = experiment: cells; format: cell-based, human; details: MDA-435 cells; for EC50: Homo sapiens, MDA435
# Description: Similar tests utilizing α-enolase siRNA were performed on MDA-435 breast adenocarcinoma cells. Chemosensitivity to various drugs was determined for the MDA-435 cells as described above.
# PC-3 cells = experiment: MTT cytotoxicity assay, PC-3 cells transfected with α-enolase siRNA; format: cell-based; details: for EC50: Homo sapiens
# MCF-7 cells [2] = experiment: Clonogenic assay, MCF-7 cells; format: cell-based, human; details: MCF-7 cells
# Description: Utilizing a clonogenic assay generated additional information concerning cell viability after drug-resistant cells were exposed to siRNA and chemotherapeutics. […] Taxol or Vincristine was added at IC10 or IC50 concentrations determined from MTT experiments for MCF-7 cells. […] The cells were further incubated for an additional 7 days. At the end of the incubation, the cells were stained with addition of a 0.5% Methylene Blue solution in 50% ethanol for 15 min. at RT. The staining solution was then removed and plates were dried overnight. The plates were scanned and the stained colonies were solubilized in 0.1% SDS. The absorbance of the resulting solution was determined by spectrophotometry at 660 nm.
# A549 cells [3] = experiment: Clonogenic assay, A549 cells; format: cell-based, human; details: A549 cells vs control vectors
# SKOV3 cells = experiment: Cytotoxicity in α-enolase siRNA transfected SKOV3 cells; details: data not shown
# A549 cells [4] = experiment: MTT cytotoxicity assay, A549 cells transfected with α-enolase siRNA; details: for EC50: Homo sapiens
# Description: Small interfering RNA transfected cells were seeded in triplicate into 96-well plates at 5×10^3 cells/well 48 hrs post-transfection. The cells were incubated for an additional 16-24 hrs before they were exposed to increasing concentrations of cytotoxic drugs. […] Appropriate dilutions were made in the respective media for each cell line. Following addition of drugs, incubation was continued for an additional 72 hrs. Twenty-five ml of MTT dye (5 mg/ml) were added into each well and the plate was further incubated at 37° C. for 4 hrs. The dye was solubilized with 10% Triton X-100, 0.01 N HCl and further incubated at 37° C. in the dark for 30 min. Cell viability was determined by measure of absorption at 570 nm in a Wallac multiwell plate reader (PerkinElmer, Inc., Boston, Mass.). The averages of triplicate wells were plotted using the Prism software (GraphPad Software, Inc., San Diego, Calif.).
# To investigate if α-enolase is broadly involved in mediating drug resistance to microtubule targeting agents, non-small cell lung cancer cell lines A549 and H460, respectively, were transfected with α-enolase siRNA and enolase expression and viability were assessed.
# [5] = control, read-out: Control (EC50)
# [6] = α-enolase specific siRNA, read-out: α-Enolase (EC50)
smiles,measurement,setting,value
CC(=O)O[C@H]1C(=O)[C@@]2(C)[C@H]([C@H](OC(=O)c3ccccc3)[C@]3(O)C[C@H](OC(=O)[C@H](O)[C@@H](NC(=O)c4ccccc4)c4ccccc4)C(C)=C1C3(C)C)[C@]1(OC(C)=O)CO[C@@H]1C[C@@H]2O [Taxol],EC50,"MCF-7 cells [1]; Homo sapiens, MCF7, control siRNA, 72 hrs drug, read-out: Control (EC50)",78.4 nM
same,IC50,"MCF-7 cells [1]; Homo sapiens, MCF7, from MTT experiments",100 nM
same,EC50,"MCF-7 cells [1]; Homo sapiens, MCF7, α-enolase specific siRNA, read-out: α-Enolase (EC50)",7.16 nM
same,sensitivity of α-enolase silenced cells,MCF-7 cells [1],substantial increase in their sensitivity
same,IC10,MCF-7 cells [1]; from MTT experiments,1 nM
same,EC50 lower in α-enolase-depleted cells vs control siRNA treated cells,MCF-7 cells [1]; on average,10 fold
same,decrease of chemotherapeutic drug resistance by α-enolase-directed siRNA vs mock siRNA,CaOV3 cells,24.6 fold
same,EC50,"CaOV3 cells; Caov-3, control, read-out: Control (EC50)",2.69 nM
same,EC50,"CaOV3 cells; Caov-3, α-enolase specific RNAi, read-out: α-Enolase (EC50)",0.11 nM
same,viability of α-enolase-silenced cells under drug treatment vs control cells,H460 cells,greatest decreases in viability
same,EC50,"H460 cells; NCI-H460, control, read-out: Control (EC50)",2.24 nM
same,EC50,"H460 cells; NCI-H460, α-enolase specific siRNA, read-out: α-Enolase (EC50)",0.602 nM
same,EC50,SW-480 cells; [5],0.276 nM
same,EC50,SW-480 cells; [6],0.033 nM
same,EC50,"MDA-435 cells; Eno-1 siRNA, read-out: Eno-1 (EC50)",0.334 nM
same,EC50,"MDA-435 cells; Eno-1 stealth siRNA, read-out: Eno-1 ST (EC50)",0.149 nM
same,EC50,"MDA-435 cells; control siRNA, read-out: Control (EC50)",1.1 nM
same,EC50,"MDA-435 cells; mock transfection, read-out: Mock (EC50)",0.445 nM
same,sensitivity of α-enolase-silenced cells,MDA-435 cells,Increases in sensitivity
same,enhancement in sensitivity with α-enolase silencing,PC-3 cells,10 fold
same,EC50,PC-3 cells; [5],0.199 nM
same,EC50,PC-3 cells; [6],0.0206 nM
same,cytotoxicity in α-enolase depleted cells in clonogenic assay,MCF-7 cells [2],enhanced taxol cytotoxicity
same,sensitivity of α-enolase siRNA cells in clonogenic assay,A549 cells [3],more sensitive
same,cytotoxic effect in α-enolase-depleted cells,SKOV3 cells,enhanced cytotoxic effect
same,chemosensitivity of α-enolase-silenced cells (words),A549 cells [4]; A549 cells,enhanced chemosensitivity; also recorded: significant shifts in their chemosensitivities
same,EC50,"A549 cells [4]; A549, read-out: Control (EC50)",5.94 nM
same,EC50,"A549 cells [4]; A549, read-out: α-Enolase (EC50)",3.16 nM
